{"source": "paper PMC6792352", "about": "“Limited Chemical Structural Diversity Found to Modulate Thyroid Hormone Receptor in the Tox21 Chemical Library” (Environmental Health Perspectives, 2019)", "key": {"in vitro": {"assay": "in vitro", "details": "rat, gh3-tre-luc cells, AC50 (uM) modified / 1000"}, "GH3-TRE-Luc cell line": {"system": "GH3-TRE-Luc cell line", "details": "read-out: AC50 (uM) modified / 1000, viability, 1 nM T3 present, 24 h"}}, "note": "Counter-ions that a name gives are not always drawn. Like-named read-outs stand apart in the source and are kept apart here."}
{"smiles": "Cc1c(C)c2c(c(C)c1O)CCC(C)(COc1ccc(CC3SC(=O)NC3=O)cc1)O2", "note": "(centres unmarked) [Troglitazone]", "values": [{"measurement": "CC50 at 24 h", "setting": "in vitro", "value": 54.8, "unit": "µM"}, {"measurement": "CC50", "setting": "GH3-TRE-Luc cell line; Tox21_110001=Tox21_112119", "value": 41.3, "unit": "µM"}]}
{"smiles": "CC(C)N(C(=O)SCC(Cl)=C(Cl)Cl)C(C)C", "note": "[Tri-allate]", "values": [{"measurement": "CC50 at 24 h", "setting": "in vitro", "value": 55.9, "unit": "µM"}, {"measurement": "CC50", "setting": "GH3-TRE-Luc cell line; Tox21_110001=Tox21_300671", "value": 53.5, "unit": "µM"}]}
{"smiles": "Oc1ccc2cc(SSc3ccc4cc(O)ccc4c3)ccc2c1", "note": "[6-Hydroxy-2-naphthyl disulfide]", "values": [{"measurement": "CC50 at 24 h", "setting": "in vitro", "value": "> 90", "unit": "µM"}, {"measurement": "CC50", "setting": "GH3-TRE-Luc cell line; Tox21_110001=Tox21_303354", "value": 81.2, "unit": "µM"}]}
{"smiles": "O=C(Nc1ccc(Cl)cc1)Nc1ccc(Cl)c(Cl)c1", "note": "[Triclocarban]", "values": [{"measurement": "CC50 at 24 h", "setting": "in vitro", "value": 6.61, "unit": "µM"}, {"measurement": "CC50", "setting": "GH3-TRE-Luc cell line; Tox21_110001=Tox21_112078", "value": 3.75, "unit": "µM"}, {"measurement": "CC50", "setting": "GH3-TRE-Luc cell line; Tox21_110001=Tox21_300481", "value": 3.32, "unit": "µM"}]}
{"smiles": "CC(C)Oc1cc(-n2nc(C(C)(C)C)oc2=O)c(Cl)cc1Cl", "note": "[Oxadiazon]", "values": [{"measurement": "CC50 at 24 h", "setting": "in vitro", "value": 50.6, "unit": "µM"}, {"measurement": "CC50", "setting": "GH3-TRE-Luc cell line; Tox21_110001=Tox21_300668", "value": 74.7, "unit": "µM"}]}
{"smiles": "O=C1OC2(c3ccccc31)c1cc(I)c(O)c(I)c1Oc1c2cc(I)c(O)c1I", "note": "[Erythrosin B]", "values": [{"measurement": "CC50 at 24 h", "setting": "in vitro", "value": 16.4, "unit": "µM"}, {"measurement": "CC50", "setting": "GH3-TRE-Luc cell line; Tox21_110001=Tox21_301634", "value": 19.8, "unit": "µM"}]}
{"smiles": "CCCCCCCCCc1ccc(O)cc1", "note": "[4-Nonylphenol]", "values": [{"measurement": "CC50 at 24 h", "setting": "in vitro", "value": 41.5, "unit": "µM"}, {"measurement": "CC50", "setting": "GH3-TRE-Luc cell line; Tox21_110001=Tox21_303647", "value": 42.8, "unit": "µM"}]}
{"smiles": "COc1cc2c(cc1O)CCN[C@]21CS[C@@H]2c3c(OC(C)=O)c(C)c4c(c3[C@H](COC1=O)N1[C@@H]2[C@H]2c3c(cc(C)c(OC)c3O)C[C@@H]([C@@H]1O)N2C)OCO4", "note": "[Trabectedin]", "values": [{"measurement": "CC50 at 24 h", "setting": "in vitro", "value": 0.00433, "unit": "µM"}, {"measurement": "CC50", "setting": "GH3-TRE-Luc cell line; Tox21_110001=Tox21_113236", "value": 0.0049, "unit": "µM"}]}
{"smiles": "N#C/C(=C1/SC[C@@H](c2ccc(Cl)cc2Cl)S1)n1ccnc1", "note": "[Luliconazole]", "values": [{"measurement": "CC50 at 24 h", "setting": "in vitro", "value": "> 50", "unit": "µM"}, {"measurement": "CC50", "setting": "GH3-TRE-Luc cell line; Tox21_110001=Tox21_112974", "value": 40.6, "unit": "µM"}]}
{"smiles": "Cc1cc(O)c2c(c1)C(=O)c1cc(O)cc(O)c1C2=O", "note": "[Emodin]", "values": [{"measurement": "CC50 at 24 h", "setting": "in vitro", "value": 29.1, "unit": "µM"}, {"measurement": "CC50", "setting": "GH3-TRE-Luc cell line; Tox21_110001=Tox21_303218", "value": 34.9, "unit": "µM"}]}
{"smiles": "CC1(C)C(C(=O)OC(C#N)c2cccc(Oc3ccccc3)c2)C1(C)C", "note": "(centres unmarked) [Fenpropathrin]", "values": [{"measurement": "CC50 at 24 h", "setting": "in vitro", "value": "> 90", "unit": "µM"}, {"measurement": "CC50", "setting": "GH3-TRE-Luc cell line; Tox21_110001=Tox21_300882", "value": 80.7, "unit": "µM"}]}
{"smiles": "C#CCOS(=O)OC1CCCCC1Oc1ccc(C(C)(C)C)cc1", "note": "(centres unmarked) [Propargite]", "values": [{"measurement": "CC50 at 24 h", "setting": "in vitro", "value": 5.83, "unit": "µM"}, {"measurement": "CC50", "setting": "GH3-TRE-Luc cell line; Tox21_110001=Tox21_300805", "value": 7.01, "unit": "µM"}]}
{"smiles": "CN1[C@@H]2CC[C@H]1C[C@@H](OC(c1ccccc1)c1ccccc1)C2", "note": "[Benztropine]", "values": [{"measurement": "CC50 at 24 h", "setting": "in vitro", "value": 24.5, "unit": "µM"}, {"measurement": "CC50", "setting": "GH3-TRE-Luc cell line; Tox21_110001=Tox21_111695", "value": 13.8, "unit": "µM"}]}
{"smiles": "CC(CN1c2ccccc2Sc2ccccc21)N(C)C", "note": "(centres unmarked) [Promethazine hydrochloride]", "values": [{"measurement": "CC50 at 24 h", "setting": "in vitro", "value": 12.2, "unit": "µM"}, {"measurement": "CC50", "setting": "GH3-TRE-Luc cell line; Tox21_110001=Tox21_302878", "value": 23, "unit": "µM"}]}
{"smiles": "O=C(CCCCCCC(=O)Nc1ccccc1)NO", "note": "[Suberoylanilide hydroxamic acid]", "values": [{"measurement": "CC50 at 24 h", "setting": "in vitro", "value": 2.15, "unit": "µM"}, {"measurement": "CC50", "setting": "GH3-TRE-Luc cell line; Tox21_110001=Tox21_112605", "value": 2.46, "unit": "µM"}]}
{"smiles": "CC1=C(/C=C/C(C)=C/C=C/C(C)=C/C(=O)O)C(C)(C)CCC1", "note": "[all trans-Retinoic acid]", "values": [{"measurement": "CC50 at 24 h", "setting": "in vitro", "value": 71.8, "unit": "µM"}, {"measurement": "CC50", "setting": "GH3-TRE-Luc cell line; Tox21_110001=Tox21_300305", "value": 77.6, "unit": "µM"}]}
{"smiles": "ClC1=C(Cl)C(Cl)(Cl)C(Cl)=C1Cl", "note": "[Hexachlorocyclopentadiene]", "values": [{"measurement": "CC50 at 24 h", "setting": "in vitro", "value": "> 90", "unit": "µM"}, {"measurement": "CC50", "setting": "GH3-TRE-Luc cell line; Tox21_110001=Tox21_302780", "value": 58, "unit": "µM"}]}
{"smiles": "Oc1cccc(-c2c3nc(c(-c4cccc(O)c4)c4ccc([nH]4)c(-c4cccc(O)c4)c4nc(c(-c5cccc(O)c5)c5ccc2[nH]5)CC4)C=C3)c1", "note": "[Temoporfin]", "values": [{"measurement": "CC50 at 24 h", "setting": "in vitro", "value": 13.6, "unit": "µM"}, {"measurement": "CC50", "setting": "GH3-TRE-Luc cell line; Tox21_110001=Tox21_113297", "value": 11.2, "unit": "µM"}]}
{"smiles": "COC(=O)C1=C(C)NC(C)=C(C(=O)OCC(C)C)C1c1ccccc1[N+](=O)[O-]", "note": "(centres unmarked) [Nisoldipine]", "values": [{"measurement": "CC50 at 24 h", "setting": "in vitro", "value": 51.4, "unit": "µM"}, {"measurement": "CC50", "setting": "GH3-TRE-Luc cell line; Tox21_110001=Tox21_112251", "value": 37.2, "unit": "µM"}]}
{"smiles": "O=Nc1ccc(Nc2ccccc2)cc1", "note": "[4-Nitrosodiphenylamine]", "values": [{"measurement": "CC50 at 24 h", "setting": "in vitro", "value": 8.75, "unit": "µM"}, {"measurement": "CC50", "setting": "GH3-TRE-Luc cell line; Tox21_110001=Tox21_302822", "value": 14.9, "unit": "µM"}]}
{"smiles": "C=C1CC[C@H](O)C/C1=C/C=C1\\CCC[C@]2(C)[C@@H]([C@H](C)CCCC(C)C)CC[C@@H]12", "note": "[Vitamin D3]", "values": [{"measurement": "CC50 at 24 h", "setting": "in vitro", "value": 44.3, "unit": "µM"}, {"measurement": "CC50", "setting": "GH3-TRE-Luc cell line; Tox21_110001=Tox21_111578", "value": 24.3, "unit": "µM"}]}
{"smiles": "Oc1c(I)cc(Cl)c2cccnc12", "note": "[Clioquinol]", "values": [{"measurement": "CC50 at 24 h", "setting": "in vitro", "value": 43.1, "unit": "µM"}, {"measurement": "CC50", "setting": "GH3-TRE-Luc cell line; Tox21_110001=Tox21_110416", "value": 43.7, "unit": "µM"}]}
{"smiles": "CC1COc2ccccc2N1C(=O)C(Cl)Cl", "note": "(centres unmarked) [Benoxacor]", "values": [{"measurement": "CC50 at 24 h", "setting": "in vitro", "value": 11.9, "unit": "µM"}, {"measurement": "CC50", "setting": "GH3-TRE-Luc cell line; Tox21_110001=Tox21_303359", "value": 22.1, "unit": "µM"}]}
{"smiles": "CC1=C(/C=C/C(C)=C/C=C/C(C)=C/C(=O)Nc2ccc(O)cc2)C(C)(C)CCC1", "note": "[4-Hydroxyphenyl retinamide]", "values": [{"measurement": "CC50 at 24 h", "setting": "in vitro", "value": 10, "unit": "µM"}, {"measurement": "CC50", "setting": "GH3-TRE-Luc cell line; Tox21_110001=Tox21_111007", "value": 6.39, "unit": "µM"}]}
{"smiles": "ClC(Cl)=C(c1ccc(Cl)cc1)c1ccc(Cl)cc1", "note": "[p,p'-DDE]", "values": [{"measurement": "CC50 at 24 h", "setting": "in vitro", "value": 48.6, "unit": "µM"}, {"measurement": "CC50", "setting": "GH3-TRE-Luc cell line; Tox21_110001=Tox21_300109", "value": 63.5, "unit": "µM"}]}
{"smiles": "C1CN(SSN2CCOCC2)CCO1", "note": "[4,4'-Dithiodimorpholine]", "values": [{"measurement": "CC50 at 24 h", "setting": "in vitro", "value": 69.4, "unit": "µM"}, {"measurement": "CC50", "setting": "GH3-TRE-Luc cell line; Tox21_110001=Tox21_303110", "value": 49.5, "unit": "µM"}]}
